Measured values taken from PMC9369311, “Examination of Intracellular GPCR-Mediated Signaling with High Temporal Resolution” (International Journal of Molecular Sciences, 2022).
Several values for one entry are separate records, joined by “and”; a condition that tells them apart may be missing. Identical values can stand only once. Like-named read-outs stand apart in the source and are kept apart here.

Target: T1, DmOctβ1 receptor (Drosophila melanogaster, UniProt Q9VCZ3)
T1 construct: expressed in transfected cells; host or cells: flpTM cells (HEK293 flpIn, Invitrogen #750-07, carrying the CNGA2 variant)
T1 sequence (Q9VCZ3 1-508): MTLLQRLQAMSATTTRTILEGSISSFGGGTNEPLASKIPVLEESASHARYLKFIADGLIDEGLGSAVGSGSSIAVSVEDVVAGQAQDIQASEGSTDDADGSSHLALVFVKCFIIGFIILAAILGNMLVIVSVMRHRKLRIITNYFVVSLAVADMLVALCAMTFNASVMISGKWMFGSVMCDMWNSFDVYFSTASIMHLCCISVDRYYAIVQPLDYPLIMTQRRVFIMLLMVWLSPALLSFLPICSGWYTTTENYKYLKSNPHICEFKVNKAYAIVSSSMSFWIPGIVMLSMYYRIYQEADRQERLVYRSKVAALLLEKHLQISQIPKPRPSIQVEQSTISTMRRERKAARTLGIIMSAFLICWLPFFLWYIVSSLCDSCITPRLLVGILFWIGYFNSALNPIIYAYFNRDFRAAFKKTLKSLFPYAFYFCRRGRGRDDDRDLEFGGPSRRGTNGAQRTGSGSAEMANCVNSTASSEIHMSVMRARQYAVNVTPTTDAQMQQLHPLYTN
Assay: Ca2+ fluorimetry in plate reader (96 MWP), flpTM-DmOctβ1 cells (cAMP-mediated Ca2+ influx via CNGA2)
Assay type: cell-based
Protocol: Both the DmOctα1B receptor- and DmOctβ1 receptor-expressing (=flpTM-DmOctβ1) cell lines were initially investigated via Ca^2+ fluorimetric measurements in a plate reader. The cells were seeded in 96 well plates and loaded with Fluo-4, enabling the detection of changes in [Ca^2+]i. The Fluo-4 was excited at 485 nm and the fluorescence emission was recorded at 510 nm. To overcome the cAMP degradation by cell-endogenous phosphodiesterases, the DmOctβ1-expressing cells were treated with 100 µM iso-butylmethylxanthine (IBMX). Prior to the ligand application, the basal fluorescence (F0) was recorded and the concentration–response curves were generated by plotting the changes in fluorescence ((Fmax − F0)/F0 = ΔF/F0) against the ligand concentrations. For a better comparison, the fluorescence intensities were normalized. The maximal change in fluorescence for each of the stimulation series was defined as 100%. The EC50 values were determined from a nonlinear regression plot (four parameters) using GraphPad Prism v5.04 for analysis and display.
In order to omit loading with the fluorescent dye, both the DmOctα1B-expressing cells and flpTM-DmOctβ1 cells were stably transfected with a construct encoding the cytosolic version of GCaMP3.0. As in the previous experiment with Fluo-4, the GCaMP3.0-expressing cell lines were seeded in 96 well plates and incubated with the same series of increasing octopamine concentrations. The GCaMP3.0 was excited at 485 nm and the fluorescence emission was recorded at 510 nm. The basal fluorescence (F0) was recorded before adding the octopamine concentration series. The fluorescence intensities were normalized to the maximal change in fluorescence, defined as 100%. The concentration–response curves were generated with GraphPad Prism v5.04. In Figure 1, the concentration–response curves obtained with Fluo-4 and GCaMP3.0 are depicted for both of the receptors. […]

In the case of `NCC(O)c1ccc(O)cc1` (stereo not drawn) [octopamine], the EC50 (flpTM-DmOctβ1-GCaMP3.0 cells, 100 µM IBMX, given as logEC50 (negative), read-out: logEC50 ± SD (converted)) is reported as 0.437 nM, the EC50 (flpTM-DmOctβ1-GCaMP3.0 cells, 100 µM IBMX, read-out: EC50) is reported as 0.4 nM and the EC50 (flpTM-DmOctβ1 cells loaded with Fluo-4, 100 µM IBMX, read-out: EC50) is reported as ~1.2 nM and 1.2 nM.
